From patent US12138242B1, “Controlling neuropathic pain” (Frimline Private Limited, priority 2017, dated 2024)

Test system: Oxaliplatin induced peripheral neuropathy in rat
Test: Cold hyperalgesia method (tail immersion test), oxaliplatin induced peripheral neuropathy
Assay type: in vivo, Wistar
Settings: for % (average tail immersion time relative to 20.00 of normal control): Table 2, doses of Table 1 p.o.; for % (average tail immersion time relative to 20.00 of normal control) / Duration of tail immersion, AVG / Duration of tail immersion, Animal Mark 1 / Duration of tail immersion, Animal Mark 2 / Duration of tail immersion, Animal Mark 3 / Duration of tail immersion, Animal Mark 4 / Duration of tail immersion, Animal Mark 5 / Duration of tail immersion, Animal Mark 6: rat; for % (average tail immersion time relative to 20.00 of normal control) / Duration of tail immersion, AVG: n=6; for % (Day 4 relative to 20.00) / Tail immersion time, Day 0 / Tail immersion time, Day 4: Table 3, groups named by human effective dose/day; for Duration of tail immersion, AVG / Duration of tail immersion, Animal Mark 1 / Duration of tail immersion, Animal Mark 2 / Duration of tail immersion, Animal Mark 3 / Duration of tail immersion, Animal Mark 4 / Duration of tail immersion, Animal Mark 5 / Duration of tail immersion, Animal Mark 6: p.o. Day 1-3 at doses of Table 1, 24 hrs after oxaliplatin 12 mg/kg i.p., cut-off 20 seconds
Procedure: Example 21—Animal Study—Screening effect of synergistic combination or composition/formulation comprising PEA and other natural ingredients against Oxaliplatin induced peripheral neuropathy in rat.
• Species: Rat (Rattus norvegicus); • Strain: Wistar; Sex: Male/Female • No. of animals: 54 Animals (n=6 per group) • Animal House conditions: • Lighting: 12/12 hour light-dark cycle • Temperature: 25±2° C. • Relative Humidity: 30 to 70% • Temperature and relative humidity were recorded Thrice daily.
EXPERIMENTAL PROCEDURE: In study fifty-four (54) rats, were divided into total nine (09) groups. Group 1 served as the normal control, Group 2 served as the disease control, Group 3, Group 4 and Group 5 served as component (A, B and C), Group 6, Group 7 and Group 8 served as formulation of test drug, while Group 9 served as the Reference standard group. For these studies, the following combinations were used.
Group-1 received vehicle (0.25% w/v Sodium CMC) orally (p.o.) for three consecutive days (Day 1, 2 & 3). Group-2 to Group-8 received test drugs, while Group 9 received Pregabalin orally (p.o.) on Day-1, Day-2 and Day-3. All treatment groups (Group 2 to 9) were administered with oxaliplatin (12 mg/kg, i.p.) on Day-3 prior to 2 hrs of test drug administration. After 24 hrs of oxaliplatin administration, treated groups as well as the normal control group were assessed using the Cold hyperalgesia method.
Cold Hyperalgesia method (Tail Immersion Test): In the Tail-immersion test, water was maintained at low (0 to 4-C) temperature. The tail of the rat was immersed in cold water and the duration (time in seconds) of tail immersion was recorded, until the tail was withdrawn from water. The cut-off time of 20 seconds was used. The decrease in tail contact time with cold water was indicative pain whereas prolonged contact time was noted as anti-allodynic effect.

SMILES: O=c1c(-c2ccc(O)cc2)coc2cc(O)ccc12 [Daidzein]
- % (average tail immersion time relative to 20.00 of normal control): 41.38%
- % (Day 4 relative to 20.00): 41.38%
- Tail immersion time, Day 0: 20.00
- Tail immersion time, Day 4: 8.28
- Duration of tail immersion, AVG: 8.28 s
- Duration of tail immersion, Animal Mark 1: 8.55 s
- Duration of tail immersion, Animal Mark 2: 8.00 s
- Duration of tail immersion, Animal Mark 3: 8.98 s
- Duration of tail immersion, Animal Mark 4: 7.95 s
- Duration of tail immersion, Animal Mark 5: 8.12 s
- Duration of tail immersion, Animal Mark 6: 8.05 s

SMILES: CC(C)C[C@H](CN)CC(=O)O [Pregabalin, reference compound]
- % (average tail immersion time relative to 20.00 of normal control): 96.27%
- % (Day 4 relative to 20.00): 96.27%
- Tail immersion time, Day 0: 20.00
- Tail immersion time, Day 4: 19.25
- Duration of tail immersion, AVG: 19.25 s
- Duration of tail immersion, Animal Mark 1: 17.20 s
- Duration of tail immersion, Animal Mark 2: 20.00 s
- Duration of tail immersion, Animal Mark 3: 20.00 s
- Duration of tail immersion, Animal Mark 4: 19.95 s
- Duration of tail immersion, Animal Mark 5: 18.37 s
- Duration of tail immersion, Animal Mark 6: 20.00 s

SMILES: O=c1c(-c2ccc(O)cc2)coc2cc(O)cc(O)c12 [Genistein]
- % (average tail immersion time relative to 20.00 of normal control): 37.58%
- % (Day 4 relative to 20.00): 37.58%
- Tail immersion time, Day 0: 20.00
- Tail immersion time, Day 4: 7.52
- Duration of tail immersion, AVG: 7.52 s
- Duration of tail immersion, Animal Mark 1: 7.68 s
- Duration of tail immersion, Animal Mark 2: 7.15 s
- Duration of tail immersion, Animal Mark 3: 7.23 s
- Duration of tail immersion, Animal Mark 4: 7.68 s
- Duration of tail immersion, Animal Mark 5: 7.68 s
- Duration of tail immersion, Animal Mark 6: 7.68 s

SMILES: CCCCCCCCCCCCCCCC(=O)NCCO [PEA, Palmitoylethanolamide]
- % (average tail immersion time relative to 20.00 of normal control): 55.73%
- % (Day 4 relative to 20.00): 55.73%
- Tail immersion time, Day 0: 20.00
- Tail immersion time, Day 4: 11.15
- Duration of tail immersion, AVG: 11.15 s
- Duration of tail immersion, Animal Mark 1: 11.32 s
- Duration of tail immersion, Animal Mark 2: 11.55 s
- Duration of tail immersion, Animal Mark 3: 10.85 s
- Duration of tail immersion, Animal Mark 4: 10.97 s
- Duration of tail immersion, Animal Mark 5: 11.44 s
- Duration of tail immersion, Animal Mark 6: 10.75 s
